Converted amounts (≈) assume the structure as drawn. Square brackets hold non-standard residues; d marks the D form. Peptide text beside a SMILES is read from it.
system: Cryptococcus neoformans; assay: Lowest concentration of compound that substantially inhibited the growth of Cryptococcus neoformans after 48 hr; assay type: functional

`CC[C@H](C)[C@H](NC(=O)[C@@H](Cc1ccccc1)NC(=O)[C@@H](Cc1c[nH]c2ccccc12)NC(=O)[C@@H](N)CCCN=C(N)N)C(=O)N[C@H](Cc1ccccc1)C(=O)N[C@@H](CCCCN)C(N)=O` [listing 1 of 2 here] and `CC[C@H](C)[C@H](NC(=O)[C@@H](Cc1ccccc1)NC(=O)[C@@H](Cc1c[nH]c2ccccc12)NC(=O)[C@@H](N)CCCN=C(N)N)C(=O)N[C@H](Cc1ccccc1)C(=O)N[C@@H](CCCN=C(N)N)C(N)=O` [listing 1 of 2 here] are within 1.5-fold of each other in MIC: 6.92 µM (≈ 6.19 µg/mL) for the first, 6.71 µM (≈ 6.19 µg/mL) for the second.

`CC[C@H](C)[C@H](NC(=O)[C@@H](Cc1ccccc1)NC(=O)[C@@H](Cc1c[nH]c2ccccc12)NC(=O)[C@@H](N)CCCN=C(N)N)C(=O)N[C@H](Cc1ccccc1)C(=O)NCC(N)=O` [listing 1 of 2 here] and `CC[C@H](C)[C@H](NC(=O)[C@@H](Cc1ccccc1)NC(=O)[C@@H](Cc1c[nH]c2ccccc12)NC(=O)[C@@H](N)CCCN=C(N)N)C(=O)N[C@H](Cc1ccccc1)C(=O)N[C@@H](C)C(N)=O` [listing 1 of 2 here] are within 1.5-fold of each other in MIC: 15.2 µM (≈ 12.5 µg/mL) for the first, 14.9 µM (≈ 12.5 µg/mL) for the second.

`CC[C@H](C)[C@H](NC(=O)[C@@H](Cc1ccccc1)NC(=O)[C@@H](Cc1c[nH]c2ccccc12)NC(=O)[C@@H](N)CCCN=C(N)N)C(=O)N[C@H](Cc1ccccc1)C(=O)N[C@@H](Cc1ccc(O)cc1)C(N)=O` [listing 1 of 2 here] and `CC[C@H](C)[C@H](NC(=O)[C@@H](Cc1ccccc1)NC(=O)[C@@H](Cc1c[nH]c2ccccc12)NC(=O)[C@@H](N)CCCN=C(N)N)C(=O)N[C@H](Cc1ccccc1)C(=O)N[C@@H](Cc1ccccc1)C(N)=O` [listing 1 of 2 here] are within 1.5-fold of each other in MIC: 13.4 µM (≈ 12.5 µg/mL) for the first, 13.7 µM (≈ 12.5 µg/mL) for the second.

First: CC[C@H](C)[C@H](NC(=O)[C@@H](Cc1ccccc1)NC(=O)[C@@H](Cc1c[nH]c2ccccc12)NC(=O)[C@@H](N)CCCN=C(N)N)C(=O)N[C@H](Cc1ccccc1)C(=O)N[C@@H](Cc1c[nH]c2ccccc12)C(N)=O [listing 1 of 2 here]
Second: CC[C@H](C)[C@H](NC(=O)[C@@H](Cc1ccccc1)NC(=O)[C@@H](Cc1c[nH]c2ccccc12)NC(=O)[C@@H](N)CCCN=C(N)N)C(=O)N[C@H](Cc1ccccc1)C(=O)N[C@@H](Cc1c[nH]cn1)C(N)=O (H-R[dW][dF]I[dF]H-NH2) [listing 1 of 2 here]
The MIC of the first is 1.9-fold higher: 13.1 µM (≈ 12.5 µg/mL) for the first, 6.85 µM (≈ 6.19 µg/mL) for the second.

`CC[C@H](C)[C@H](NC(=O)[C@@H](Cc1ccccc1)NC(=O)[C@@H](Cc1c[nH]c2ccccc12)NC(=O)[C@@H](N)CCCN=C(N)N)C(=O)N[C@H](Cc1ccccc1)C(=O)N[C@H](C(N)=O)C(C)C` [listing 1 of 2 here] and `CC[C@H](C)[C@H](NC(=O)[C@@H](Cc1ccccc1)NC(=O)[C@@H](Cc1c[nH]c2ccccc12)NC(=O)[C@@H](N)CCCN=C(N)N)C(=O)N[C@H](Cc1ccccc1)C(=O)N[C@H](C(N)=O)[C@@H](C)O` [listing 1 of 2 here] are the same in MIC: 14.4 µM (≈ 12.5 µg/mL) for the first, 14.4 µM (≈ 12.5 µg/mL) for the second.

`CC[C@H](C)[C@H](NC(=O)[C@@H](Cc1ccccc1)NC(=O)[C@@H](Cc1c[nH]c2ccccc12)NC(=O)[C@@H](N)CCCN=C(N)N)C(=O)N[C@H](Cc1ccccc1)C(=O)N[C@@H](CO)C(N)=O` [listing 1 of 2 here] and `CC[C@H](C)[C@H](NC(=O)[C@@H](Cc1ccccc1)NC(=O)[C@@H](Cc1c[nH]c2ccccc12)NC(=O)[C@@H](N)CCCN=C(N)N)C(=O)N[C@H](Cc1ccccc1)C(=O)N[C@@H](CC(N)=O)C(N)=O` [listing 1 of 2 here] are within 1.5-fold of each other in MIC: 14.6 µM (≈ 12.5 µg/mL) for the first, 14.2 µM (≈ 12.5 µg/mL) for the second.

`CC[C@H](C)[C@H](NC(=O)[C@@H](Cc1ccccc1)NC(=O)[C@@H](Cc1c[nH]c2ccccc12)NC(=O)[C@@H](N)CCCN=C(N)N)C(=O)N[C@H](Cc1ccccc1)C(=O)N[C@@H](CCC(N)=O)C(N)=O` [listing 1 of 2 here] and `CC[C@H](C)[C@H](NC(=O)[C@@H](Cc1ccccc1)NC(=O)[C@@H](Cc1c[nH]c2ccccc12)NC(=O)[C@@H](N)CCCN=C(N)N)C(=O)N[C@H](Cc1ccccc1)C(=O)N[C@@H](CCC(=O)O)C(N)=O` [listing 1 of 2 here] are within 1.5-fold of each other in MIC: 55.9 µM (≈ 50 µg/mL) for the first, 55.8 µM (≈ 50 µg/mL) for the second.

Compared with `CC[C@H](C)[C@H](NC(=O)[C@@H](Cc1ccccc1)NC(=O)[C@@H](Cc1c[nH]c2ccccc12)NC(=O)[C@@H](N)CCCN=C(N)N)C(=O)N[C@H](Cc1ccccc1)C(=O)N1CCC[C@H]1C(N)=O` [listing 1 of 2 here], `CC[C@H](C)[C@H](NC(=O)[C@@H](Cc1ccccc1)NC(=O)[C@@H](Cc1c[nH]c2ccccc12)NC(=O)[C@@H](N)CCCN=C(N)N)C(=O)N[C@H](Cc1ccccc1)C(=O)N[C@@H](CC(C)C)C(N)=O` [listing 1 of 2 here] is 4.1-fold lower in MIC: 28.9 µM (≈ 25 µg/mL) for the first, 7.04 µM (≈ 6.2 µg/mL) for the second.

Compared with `CC[C@H](C)[C@H](NC(=O)[C@@H](Cc1ccccc1)NC(=O)[C@@H](Cc1c[nH]c2ccccc12)NC(=O)[C@@H](N)CCCN=C(N)N)C(=O)N[C@H](Cc1ccccc1)C(=O)N[C@@H](CCSC)C(N)=O` [listing 1 of 2 here], `CC[C@H](C)[C@H](NC(=O)[C@@H](Cc1ccccc1)NC(=O)[C@@H](Cc1c[nH]c2ccccc12)NC(=O)[C@@H](N)CCCN=C(N)N)C(=O)N[C@H](Cc1ccccc1)C(=O)N[C@@H](CC(=O)O)C(N)=O` [listing 1 of 2 here] is 4.1-fold higher in MIC: 27.8 µM (≈ 25 µg/mL) for the first, 113 µM (≈ 100 µg/mL) for the second.

First: CC[C@H](C)[C@H](NC(=O)[C@@H](Cc1ccccc1)NC(=O)[C@@H](NC(=O)[C@@H](Cc1ccccc1)NC(=O)[C@@H](Cc1c[nH]c2ccccc12)NC(=O)[C@@H](N)CCCN=C(N)N)[C@@H](C)CC)C(N)=O [listing 1 of 2 here]
Second: NCCCC[C@H](NC(=O)[C@@H](Cc1ccccc1)NC(=O)[C@H](Cc1ccccc1)NC(=O)[C@@H](Cc1ccccc1)NC(=O)[C@@H](Cc1c[nH]c2ccccc12)NC(=O)[C@@H](N)Cc1c[nH]cn1)C(N)=O (H-H[dW][dF]F[dF]K-NH2)
The MIC of the first is 4.2-fold higher: 28.4 µM (≈ 25 µg/mL) for the first, 6.81 µM (≈ 6.2 µg/mL) for the second.

system: Candida albicans; assay: Antifungal activity against Candida albicans using twofold microbroth dilution technique.; assay type: functional, organism-based

`CC[C@H](C)[C@H](NC(=O)[C@@H](Cc1ccccc1)NC(=O)[C@@H](Cc1c[nH]c2ccccc12)NC(=O)[C@@H](N)CCCN=C(N)N)C(=O)N[C@H](Cc1ccccc1)C(=O)N[C@@H](CCCCN)C(N)=O` [listing 2 of 2 here] and `CC[C@H](C)[C@H](NC(=O)[C@@H](Cc1ccccc1)NC(=O)[C@@H](Cc1c[nH]c2ccccc12)NC(=O)[C@@H](N)CCCN=C(N)N)C(=O)N[C@H](Cc1ccccc1)C(=O)N[C@@H](CCCN=C(N)N)C(N)=O` [listing 2 of 2 here] cannot be ordered by IC50: 14.4 µM for the first, over 12.5 µM for the second.

`CC[C@H](C)[C@H](NC(=O)[C@@H](Cc1ccccc1)NC(=O)[C@@H](Cc1c[nH]c2ccccc12)NC(=O)[C@@H](N)CCCN=C(N)N)C(=O)N[C@H](Cc1ccccc1)C(=O)NCC(N)=O` [listing 2 of 2 here] and `CC[C@H](C)[C@H](NC(=O)[C@@H](Cc1ccccc1)NC(=O)[C@@H](Cc1c[nH]c2ccccc12)NC(=O)[C@@H](N)CCCN=C(N)N)C(=O)N[C@H](Cc1ccccc1)C(=O)N[C@@H](C)C(N)=O` [listing 2 of 2 here] cannot be ordered by IC50: 33.9 µM for the first, over 14.9 µM for the second.

`CC[C@H](C)[C@H](NC(=O)[C@@H](Cc1ccccc1)NC(=O)[C@@H](Cc1c[nH]c2ccccc12)NC(=O)[C@@H](N)CCCN=C(N)N)C(=O)N[C@H](Cc1ccccc1)C(=O)N[C@@H](Cc1ccc(O)cc1)C(N)=O` [listing 2 of 2 here] and `CC[C@H](C)[C@H](NC(=O)[C@@H](Cc1ccccc1)NC(=O)[C@@H](Cc1c[nH]c2ccccc12)NC(=O)[C@@H](N)CCCN=C(N)N)C(=O)N[C@H](Cc1ccccc1)C(=O)N[C@@H](Cc1ccccc1)C(N)=O` [listing 2 of 2 here] are within 1.5-fold of each other in IC50: 15.9 µM for the first, 13.7 µM for the second.

Compared with `CC[C@H](C)[C@H](NC(=O)[C@@H](Cc1ccccc1)NC(=O)[C@@H](Cc1c[nH]c2ccccc12)NC(=O)[C@@H](N)CCCN=C(N)N)C(=O)N[C@H](Cc1ccccc1)C(=O)N[C@@H](Cc1c[nH]c2ccccc12)C(N)=O` [listing 2 of 2 here], `CC[C@H](C)[C@H](NC(=O)[C@@H](Cc1ccccc1)NC(=O)[C@@H](Cc1c[nH]c2ccccc12)NC(=O)[C@@H](N)CCCN=C(N)N)C(=O)N[C@H](Cc1ccccc1)C(=O)N[C@@H](Cc1c[nH]cn1)C(N)=O` (H-R[dW][dF]I[dF]H-NH2) [listing 2 of 2 here] is 3.7-fold lower in IC50: 25.4 µM for the first, 6.85 µM for the second. The second is the more potent here.

`CC[C@H](C)[C@H](NC(=O)[C@@H](Cc1ccccc1)NC(=O)[C@@H](Cc1c[nH]c2ccccc12)NC(=O)[C@@H](N)CCCN=C(N)N)C(=O)N[C@H](Cc1ccccc1)C(=O)N[C@H](C(N)=O)C(C)C` [listing 2 of 2 here] and `CC[C@H](C)[C@H](NC(=O)[C@@H](Cc1ccccc1)NC(=O)[C@@H](Cc1c[nH]c2ccccc12)NC(=O)[C@@H](N)CCCN=C(N)N)C(=O)N[C@H](Cc1ccccc1)C(=O)N[C@H](C(N)=O)[C@@H](C)O` [listing 2 of 2 here] cannot be ordered by IC50: over 28.4 µM for the first, over 14.9 µM for the second.

`CC[C@H](C)[C@H](NC(=O)[C@@H](Cc1ccccc1)NC(=O)[C@@H](Cc1c[nH]c2ccccc12)NC(=O)[C@@H](N)CCCN=C(N)N)C(=O)N[C@H](Cc1ccccc1)C(=O)N[C@@H](CO)C(N)=O` [listing 2 of 2 here] and `CC[C@H](C)[C@H](NC(=O)[C@@H](Cc1ccccc1)NC(=O)[C@@H](Cc1c[nH]c2ccccc12)NC(=O)[C@@H](N)CCCN=C(N)N)C(=O)N[C@H](Cc1ccccc1)C(=O)N[C@@H](CC(N)=O)C(N)=O` [listing 2 of 2 here] cannot be ordered by IC50: over 14.9 µM for the first, over 14.9 µM for the second.

`CC[C@H](C)[C@H](NC(=O)[C@@H](Cc1ccccc1)NC(=O)[C@@H](Cc1c[nH]c2ccccc12)NC(=O)[C@@H](N)CCCN=C(N)N)C(=O)N[C@H](Cc1ccccc1)C(=O)N[C@@H](CCC(N)=O)C(N)=O` [listing 2 of 2 here] and `CC[C@H](C)[C@H](NC(=O)[C@@H](Cc1ccccc1)NC(=O)[C@@H](Cc1c[nH]c2ccccc12)NC(=O)[C@@H](N)CCCN=C(N)N)C(=O)N[C@H](Cc1ccccc1)C(=O)N[C@@H](CCC(=O)O)C(N)=O` [listing 2 of 2 here] cannot be ordered by IC50: 30.2 µM for the first, over 28.4 µM for the second.

Going from `CC[C@H](C)[C@H](NC(=O)[C@@H](Cc1ccccc1)NC(=O)[C@@H](Cc1c[nH]c2ccccc12)NC(=O)[C@@H](N)CCCN=C(N)N)C(=O)N[C@H](Cc1ccccc1)C(=O)N1CCC[C@H]1C(N)=O` [listing 2 of 2 here] to `CC[C@H](C)[C@H](NC(=O)[C@@H](Cc1ccccc1)NC(=O)[C@@H](Cc1c[nH]c2ccccc12)NC(=O)[C@@H](N)CCCN=C(N)N)C(=O)N[C@H](Cc1ccccc1)C(=O)N[C@@H](CC(C)C)C(N)=O` [listing 2 of 2 here], the IC50 falls from 51.4 µM to 14.9 µM (3.4-fold).

`CC[C@H](C)[C@H](NC(=O)[C@@H](Cc1ccccc1)NC(=O)[C@@H](Cc1c[nH]c2ccccc12)NC(=O)[C@@H](N)CCCN=C(N)N)C(=O)N[C@H](Cc1ccccc1)C(=O)N[C@@H](CCSC)C(N)=O` [listing 2 of 2 here] and `CC[C@H](C)[C@H](NC(=O)[C@@H](Cc1ccccc1)NC(=O)[C@@H](Cc1c[nH]c2ccccc12)NC(=O)[C@@H](N)CCCN=C(N)N)C(=O)N[C@H](Cc1ccccc1)C(=O)N[C@@H](CC(=O)O)C(N)=O` [listing 2 of 2 here] cannot be ordered by IC50: 24.5 µM for the first, over 14.9 µM for the second.

First: CC[C@H](C)[C@H](NC(=O)[C@@H](Cc1ccccc1)NC(=O)[C@@H](NC(=O)[C@@H](Cc1ccccc1)NC(=O)[C@@H](Cc1c[nH]c2ccccc12)NC(=O)[C@@H](N)CCCN=C(N)N)[C@@H](C)CC)C(N)=O [listing 2 of 2 here]
Second: NCCCC[C@H](NC(=O)[C@@H](Cc1ccccc1)NC(=O)[C@H](Cc1ccccc1)NC(=O)[C@@H](Cc1ccccc1)NC(=O)[C@@H](Cc1c[nH]c2ccccc12)NC(=O)[C@@H](N)Cc1c[nH]cn1)C(N)=O (H-H[dW][dF]F[dF]K-NH2)
The IC50 of the first is 1.6-fold higher: 45.6 µM for the first, 28.6 µM for the second. The second is the more potent here.

Source: ChEMBL document CHEMBL1133032, “Combinatorial approach to lead optimization of a novel hexapeptide with antifungal activity” (Bioorg Med Chem Lett, 2000)
